Measurements from ChEMBL document CHEMBL1129839, “The preparation and sar of 4-(anilino), 4-(phenoxy), and 4-(thiophenoxy)-quinazolines: Inhibitors of p56lck and EGF-R tyrosine kinase activity” (Bioorg Med Chem Lett, 1997).

Legend:
[1] = molecular target: T1, Epidermal growth factor receptor (Homo sapiens, UniProt P00533); experiment: Inhibition of Epidermal growth factor receptor autophosphorylation.
[2] = molecular target: T2, Tyrosine-protein kinase Lck (Homo sapiens, UniProt P06239); experiment: Inhibition of p56 Lck tyrosine kinase in Jurkat cells where p56lck autophosphorylation is inhibited.; type: cell-based
T2 sequence (P06239 whole entry): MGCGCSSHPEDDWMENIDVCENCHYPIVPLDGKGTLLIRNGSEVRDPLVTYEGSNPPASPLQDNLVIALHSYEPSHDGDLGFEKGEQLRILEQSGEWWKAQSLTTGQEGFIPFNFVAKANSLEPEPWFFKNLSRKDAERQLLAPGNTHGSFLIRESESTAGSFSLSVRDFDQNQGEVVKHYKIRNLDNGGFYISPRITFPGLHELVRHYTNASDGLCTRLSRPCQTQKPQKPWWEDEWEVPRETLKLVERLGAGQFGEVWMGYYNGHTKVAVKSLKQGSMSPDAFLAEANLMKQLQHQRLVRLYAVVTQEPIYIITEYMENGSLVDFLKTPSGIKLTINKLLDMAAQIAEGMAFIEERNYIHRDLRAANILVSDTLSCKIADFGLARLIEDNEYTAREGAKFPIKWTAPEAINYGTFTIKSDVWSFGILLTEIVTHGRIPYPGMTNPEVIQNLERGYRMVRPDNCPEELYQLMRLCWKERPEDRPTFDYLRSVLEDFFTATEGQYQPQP

[3] = molecular target: T2, Tyrosine-protein kinase Lck; experiment: Inhibition of p56lck kinase autophosphorylation in Jurkat cells; type: cell-based
[4] = molecular target: T1, Epidermal growth factor receptor
Description: Inhibition of Epidermal growth factor receptor autophosphorylation, 0.05-0.10

T1 sequence (P00533 whole entry): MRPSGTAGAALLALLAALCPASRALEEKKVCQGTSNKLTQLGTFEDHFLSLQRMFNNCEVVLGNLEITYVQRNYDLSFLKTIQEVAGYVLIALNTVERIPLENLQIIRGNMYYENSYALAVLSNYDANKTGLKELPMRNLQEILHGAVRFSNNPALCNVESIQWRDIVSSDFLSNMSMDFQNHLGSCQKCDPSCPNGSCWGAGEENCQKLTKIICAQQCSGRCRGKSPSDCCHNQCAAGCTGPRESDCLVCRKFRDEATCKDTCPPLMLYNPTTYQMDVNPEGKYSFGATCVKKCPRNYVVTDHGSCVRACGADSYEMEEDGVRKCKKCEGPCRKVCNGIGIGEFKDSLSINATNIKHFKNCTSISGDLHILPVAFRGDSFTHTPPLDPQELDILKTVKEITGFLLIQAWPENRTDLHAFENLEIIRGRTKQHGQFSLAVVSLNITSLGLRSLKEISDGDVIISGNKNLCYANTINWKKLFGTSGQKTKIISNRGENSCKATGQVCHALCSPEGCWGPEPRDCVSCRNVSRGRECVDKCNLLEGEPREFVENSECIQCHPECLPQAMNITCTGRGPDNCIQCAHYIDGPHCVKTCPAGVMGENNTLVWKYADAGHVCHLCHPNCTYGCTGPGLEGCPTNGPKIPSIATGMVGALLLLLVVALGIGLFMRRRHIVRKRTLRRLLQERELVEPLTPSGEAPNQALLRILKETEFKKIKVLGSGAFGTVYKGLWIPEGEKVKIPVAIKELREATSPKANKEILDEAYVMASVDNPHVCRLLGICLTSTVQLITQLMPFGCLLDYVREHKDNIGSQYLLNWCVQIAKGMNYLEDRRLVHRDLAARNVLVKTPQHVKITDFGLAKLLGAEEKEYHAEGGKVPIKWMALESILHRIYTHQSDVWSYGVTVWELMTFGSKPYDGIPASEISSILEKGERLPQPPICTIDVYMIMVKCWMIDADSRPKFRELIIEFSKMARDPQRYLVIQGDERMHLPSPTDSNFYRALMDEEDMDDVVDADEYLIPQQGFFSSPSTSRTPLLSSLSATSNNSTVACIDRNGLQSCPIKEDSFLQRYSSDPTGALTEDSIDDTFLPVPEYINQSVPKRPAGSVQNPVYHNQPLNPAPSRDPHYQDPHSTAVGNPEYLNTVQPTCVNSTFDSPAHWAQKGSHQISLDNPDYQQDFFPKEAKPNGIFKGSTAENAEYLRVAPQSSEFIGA

COc1ccc(Sc2ncnc3cc(OC)c(OC)cc23)cc1OC
IC50 [1]: > 50000 nM | IC50 [2]: > 50 µM

COc1cc2ncnc(Oc3cccc(Cl)c3)c2cc1OC
IC50 [1]: 20 nM

COc1cc2ncnc(Sc3cccc(Cl)c3)c2cc1OC
IC50 [1]: 10 nM

COc1cc(Nc2[nH]cnc3ncnc2-3)cc(OC)c1OC
IC50 [2]: 50 µM

COc1cc(Nc2[nH]cnc3nncc2-3)cc(OC)c1OC
IC50 [2]: 10 µM

COc1cc2ncnc(Nc3cccc(Cl)c3)c2cc1OC
IC50 [3]: 5 µM

COc1cc2ncnc(Nc3cccc(F)c3)c2cc1OC
IC50 [2]: 10 µM

COc1cc2nc(Cl)nc(Nc3cc(OC)c(OC)c(OC)c3)c2cc1OC
IC50 [1]: > 20000 nM | IC50 [2]: > 100 µM

COc1cc2ncnc(Nc3ccccc3)c2cc1OC
IC50 [3]: 10 µM

COc1ccc2ncnc(Nc3cc(OC)c(OC)c(OC)c3)c2c1
IC50 [1]: 100 nM | IC50 [2]: 10 µM

COc1ccc(Nc2ncnc3cc(OC)c(OC)cc23)cc1
IC50 [1]: 250 nM | IC50 [2]: 10 µM

COc1cc(Nc2ncnc3c(OC)c(OC)c(OC)cc23)cc(OC)c1OC
IC50 [1]: > 20000 nM | IC50 [2]: > 100 µM

COc1cc(Nc2ncnc3cc(OC)c(OC)cc23)cc(OC)c1
IC50 [1]: 3000 nM | IC50 ([3]; jurkat): 10 µM

COc1cc2ncnc(N(C)c3ccccc3)c2cc1OC
IC50 [3]: > 100 µM

COc1ccc(Nc2ncnc3cc(OC)c(OC)cc23)cc1OC
IC50 [1]: 350 nM | IC50 ([2]; jurkat): 10 µM

COc1cc(Nc2ncnc3c(C)cc(C)cc23)cc(OC)c1OC
IC50 [1]: > 20000 nM | IC50 [2]: > 100 µM

COc1cc2ncnc(NCc3ccccc3)c2cc1OC
IC50 [1]: 4 nM

COc1cc(Nc2ncnc3ccc(Cl)cc23)cc(OC)c1OC
IC50 [1]: > 1000 nM | IC50 [2]: > 50 µM

COc1cc2ncnc(Nc3ccc(O)cc3)c2cc1OC
IC50 [1]: 100 nM | IC50 [2]: 3 µM

Clc1cccc(Nc2ncnc3ccccc23)c1
IC50 [3]: 50 µM | IC50 [4]: 50 nM

COc1cc2ncnc(Nc3ccc4c(c3)CCC4)c2cc1OC
IC50 [2]: 50 µM

COc1cc2ncnc(Nc3ccc(N4CCOCC4)cc3)c2cc1OC
IC50 [1]: > 1000 nM | IC50 [2]: > 100 µM

COc1c(C=O)c(O)cc2c1C(=O)c1ccccc1C2=O [DAMNACANTHAL]
IC50 [2]: 0.017 µM
